This note sets out measurements from patent publication US10766914B2, “DNA alkylating agents” (OBI PHARMA, INC., priority 2015, dated 2020).

The nature of data set [1]: Example 4-C body weight change, A375 xenograft study. The class given is in vivo, female nude mice (nu/nu). Conditions: 20 mpk, qd × 5 × 2, ip. In a few lines: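 Cells in 50% Matrigel were implanted subcutaneously in the flank, and mice (10/group) were randomized at 100-150 mm3. Compounds in 5% DMSO/D5W were dosed IP QD×5/wk ×2 cycles, IP once, IP weekly ×3 wk, or IV weekly ×3 wk. Body weight and tumour volume were measured twice weekly; TGI = (1−ΔT/ΔC)×100.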

The test system of data set [2] is SNU-449. Briefly: TH2870 sensitivity in liver cancer cells. The class given is cell-based, human. The conditions noted are these: AKR1C3 expression ++++.
In data set [3] the test system is A 549 non-small cell lung xenograft. Briefly: Example 4-B antitumor efficacy, ectopic A549 NSCLC xenograft model. The format is in vivo, female nude mice (nu/nu). The conditions noted are these: 20 mg/kg ip QD × 5/wk × 2 wks. The source says:
Specific pathogen-free homozygous female nude mice (nu/nu, Charles River Laboratories) were used. Mice were given food and water ad libitum and housed in microisolator cages. Four to six week old animals were identified by microchips (Locus Technology, Manchester, Md., USA) at the time of the experiments. All animal studies were approved by the Institutional Animal Care and Use Committee at Threshold Pharmaceuticals, Inc.
All cell lines were from the American Type Culture Collection (ATCC, Rockville, Md., USA).
(§1) Cells were mixed with Matrigel (50% with exception for 30% in the H460) and 0.2 ml per mouse were subcutaneously implanted to the flank area of the animals. When tumor size reached 100-150 250 mm3, mice were randomized into experimental or vehicle groups with 10 mice/group and treatment was started (Day 1). The tested compounds were formulated in 5% DMSO in D5W. The regimens employed in the examples include IP, QD×5/wk (5 days on, 2 days off) as one cycle, for a total of 2 cycles; IP, once; IP, weekly for total 3 weeks; and IV, weekly for 3 weeks. Tumor growth and body weight were measured twice a week. Tumor volume was calculated as (length×width2)/2. Drug efficacy was assessed as Tumor Growth Inhibition (TGI) and Tumor Growth Delay (TGD). TGI was defined as (1−ΔT/ΔC)×100, where ΔT/ΔC presented the ratio of the change in mean (or median, if variation within the group was relatively large) tumor volume of the treated group and of the control group. TGD was calculated as the extra days for the treated tumor to reach 500 mm3 or 1000 mm3 as compared to the control group. Animals were culled when individual tumor size reached over 2000 mm3 or mean tumor volume exceeded 1000 mm3 in the group. Data are expressed as the mean±SEM. One-way analysis of variance with Dunnett post comparison test (GraphPad Prism 4) or two-tailed student's t-test were used for analysis. A P level <0.05 was considered statistically significant.
The dosing was as follows. Daily IP dosing: 5 doses then 2 days off then 5 more doses starting at 110 mm^3 tumors on day 1 (10 animals per group average tumor volume).
Doses were selected by first doing a toxicity test in CD1 mice as described above. The compounds were tested against Thio-tepa.

In data set [4] the test system is SNU-387. Briefly: TH2870 sensitivity in liver cancer cells. The class given is cell-based, human. The conditions noted are these: AKR1C3 expression ++++.
For data set [5], the system named is HCCC-9810. Briefly: TH2870 sensitivity in liver cancer cells. The conditions noted are these: AKR1C3 expression ++++. The class given is cell-based, human.
Data set [6] deals with H460 cells. Briefly: Proliferation assay in H460 cells (2 hr exposure, AlamarBlue). Conditions: Homo sapiens, NCI-H460, 2 hrs exposure, wash, 70 hrs growth, read-out: IC 50 in proliferation assay in H460 cells. The format is cell-based, human. A digest of the protocol:
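H460 cells seeded at 4×10^3/well, grown 24 h, then exposed to compound for 2 h at 37 °C. Drug was washed off and cells were regrown 70 h in fresh medium. Viable cells were read by AlamarBlue, and IC50 was taken as the concentration giving 50% growth inhibition.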
(In general: Resazurin is reduced to fluorescent resorufin, in cell work by metabolically active cells.)

Data set [7] in a line: Example 4-D body weight change and lethal toxicity, A549 xenograft study. The class given is in vivo, female nude mice (nu/nu). The conditions noted are these: for Lethal Tox: 10 animals per group. The protocol: as §1
The compounds were tested in another A549 model. The compounds were dosed as follows. Daily IP dosing: 5 doses then 2 days off then 5 more doses starting at 100 mm^3 tumors on day 1 (10 animals per group average tumor volume). The antitumor effects and the safety of administration are graphically illustrated below.

`CC(OP(=O)(N1CC1)N1CC1)c1ccc([N+](=O)[O-])c(Oc2cccc(C(=O)N(C)C)c2)c1` (stereo not drawn) [Compound 2870]: the “Max. BW loss %” value in data set [1] turned out to be 0%; in data set [7] (20 mg/kg IP QD × 5/wk × 2 wks), 0.3%; in data set [7] (40 mg/kg IV 2/wk × 2 wks), 2.0%. For the same molecule, the “Max Inhibition %” value in data set [2] was 99.6%; in data set [4] it was 102.8%; in data set [5], 95.4%. For the same molecule, the IC50 in data set [2] (Homo sapiens, read-out: RelIC50) is 40 nM; in data set [6], 0.4 nM. Besides, in data set [3], the “TGD 500” value is over 72 days. Besides, the TGI in data set [3] worked out at 102.3%. The “Lethal Tox” value in data set [7] (20 mg/kg IP QD × 5/wk × 2 wks) was 0; in data set [7] (40 mg/kg IV 2/wk × 2 wks) it was 1.
